The record followed here is US20080114063A1, “Use of 2,5-Dihydroxybenzene Derivatives for the Treatment of Tissue Reactive Diseases” (Action Medicines, priority 2006, published 2008).

Entries after “also recorded” stand apart in the source; their conditions may differ.

In test [1] the target is fibroblast growth factor-1 (FGF-1) (Homo sapiens, UniProt P05230). Briefly: Co-crystallization with FGF-1 (crystal diffraction). It is filed as binding. The settings on record: electron density contoured at 1σ, site close to that of 2,5-dihydroxybenzenesulfonic acid. Here is the method:
Based on the crystal diffraction of the FGF-1:2-acetoxy-5-hydroxybenzene sulfonic acid, FGF-1:5-acetoxy-2-hydroxybenzene sulfonic acid and FGF-1:2,5-diacetoxybenzene sulfonic acid complexes, the structures of the complexes were calculated and represented. FIGS. 20, 21 and 22, which show the surface of the dyed protein according to its electrostatic potential (light grey: negative charge; dark grey: positive charge; white: lack of charge), show the manner in which 2-acetoxy-5-hydroxybenzene sulfonic acid, 5-acetoxy-2-hydroxybenzene sulfonic acid and 2,5-diacetoxybenzene sulfonic acid interact, respectively, with FGF-1.

The subject of test [2] is fibroblast growth factor-1 (FGF-1) induced mitogenesis in Balb/c 3T3 fibroblasts. As to the kind of experiment: Inhibition of FGF-1 induced mitogenesis in quiescent Balb/c 3T3 fibroblast cultures. It is filed as cell-based. The note with it: quiescent cultures of Balb/c 3T3 fibroblasts. Here is the method: The evaluated compounds were used in the form of potassium salt, except in the first case in which calcium salt was used. The experiments were carried out as described in Fernández-Tornero C et al. J Biol Chem, 2003.

The next test has as its system rat C6 glioma cells. Briefly: Proliferation of rat glioma C6 cells (crystal violet). The note with it: 500 μM, 48 h, crystal violet absorbance at 595 nm. It is filed as cell-based. Here is the method:
FIG. 19. […] 5A-2HBS and 2A-5HBS were administered or not (control) after seeding C6 cells in 24 well plates (10^4 per well) until they were fixed 48 hours later. Data are expressed as the mean ±SEM of the percentage of absorbance at 595 nm obtained in control cultures, which is proportional to the number of cells stained with crystal violet. Data were obtained from 3 cultures for each treatment and 6 control cultures.
The cell line used was the C6 cell line and the experiment was carried out as described in examples 2 and 3. Once adhered, the cells were treated or not (controls) with (5A-2HBS) (500 μM) or (2A-5HBS) (500 μM) and they were allowed to proliferate for 48 h. After this time the glioma cell proliferation was evaluated by means of staining the fixed cells with crystal violet. The number of cells is proportional to the amount of retained dye, which was determined spectrophotometrically by measuring the absorbance at 595 nm once the dye was extracted from the cells.

For test [3], the system named is intestinal inflammatory disease (IID) induced by 3% dextran sulfate sodium. As to the kind of experiment: Intestinal inflammatory disease induced by dextran sulfate sodium (DSS) in the mouse. The note with it: for disease clinical score (0 to 6 scale): two DSS cycles. The class given is in vivo, mice of strain C57BL/6J-664. An excerpt: The induction of the intestinal inflammatory disease described below is a representative model for the evaluation of therapeutic strategies to treat Crohn's disease and ulcerative colitis. 7-8 week old female mice of strain C57BL/6J-664 were used. The intestinal inflammatory disease (IID) was induced by feeding the mice with 3% dextran sulfate sodium (DSS; MW 40,000) dissolved in drinking water in 2 cycles. Each cycle consisted of 7 days with 3% DSS in the drinking water separated by 7 days with regular water. A daily clinical evaluation of the animals was performed in which the body weight, the consistency of the faeces and the presence of blood in the faeces were determined. Thus, the validated score of the clinical activity of the disease was evaluated with a 0 to 6 scale, considering the following parameters: consistency of the faeces, presence or absence of fecal blood and loss of weight.
At the end of the first cycle of exposure to DSS, the mice were divided into the following treatment groups: a first group was administered intraperitoneal (i.p) injections of vehicle (0.9% NaCl). Another group received intramuscular injections of Solu-Medrol, a standard IID treatment, at a dose of 10 mg/kg/day. A third group was administered i.p. injections of potassium 2,5-diacetroxybenzene sulfonate (DABS, 100 mg/kg/day). The last group was treated orally with 125 mg/kg day of DABS.

The next test relates to OVA-sensitized mice. Briefly: Experimentally induced (OVA) asthma in mice: methacholine bronchoconstriction and BAL cell count. The class given is in vivo, Balb/c mice. The settings on record: for methacholine induced bronchoconstriction (Penh): methacholine 5 and 20 mg/mL. Here is the method:
6-9 week old Balb/c mice were used. The ovoalbumin (OVA)/aluminum complex was obtained after dissolving OVA (500 μg/mL) in PBS, and mixing it with an equal volume of 10% aluminum potassium sulfate at pH 6.5 for 1 hour. After centrifuging the pellet (750×g for 5 minutes) the OVA/aluminum pellet was resuspended in distilled water. On day 0, the mice were intraperitoneally injected with 100 μg of OVA/aluminum. Eight days later, the mice were anesthetized and exposed to 250 μg of OVA. Later, they were administered 125 μg of OVA on days 15, 18 and 21. Each […] received sublingual administration of OVA.
The following treatments were administered to the animals: (i.p.) vehicle from day 2, potassium 2,5-diacetoxybencene sulfonate (DABS; 100 mg/kg/day, i.p.) from day 2, DABS (100 mg/kg/day, i.p.) from day 8 and Combivent (20 μg/200 μg in aerosol) on days 20, 21 and 22, the latter as a reference treatment.
In order to evaluate the pulmonary function, the response to methacholine in conscious mice was determined, 24 hours after the last exposure to OVA. The mice were exposed to increasing methacholine concentrations (5 and 20 mg/mL) in the form of aerosol using an ultrasonic nebulizer during 2 minutes. The degree of bronchoconstriction was expressed as the enhanced […] (Penh) which correlates to the mouse air resistance, impedance and pressure within the pleura. The Penh was calculated using the formula Penh=[(Te/Rt−1)×(PEF/PIF)], where Te is expiratory time, Rt is relaxation time, PEF is peak expiratory flow and PIF is peak inspiratory flow×0.67 coefficient.
After measuring airway hyperreactivity, the mice were sacrificed and bronchoalveolar lavage (BAL) of the right lung was collected. The total number of cells in the BAL fluid was determined.

For a further test, the system named is Leishmania major. Briefly: Experimental infection with Leishmania major in mouse paw pad (lesion size). It is filed as in vivo, Leishmania major in BALB/c female mice. From the text: This model is based in the massive inoculation of Leishmania promatigotes in the mouse paw pad. Under these conditions, the parasite induces a progressive inflammation correlated with the multiplication of parasites at the site of inoculation. BALB/c strain female mice that developed severe and uncontrolled injuries were used (Foote S J, Handman E. Brief Funct Genomic Proteomic, 2005). This model has been used in pharmacology to monitor the therapeutic capacity of new leishmanicide compounds and the preventive capacity of potential vaccines against leishmaniasis ((Nelson K G et al. Antimicrob Agents Chemother. 2006).
The animals were inoculated with 5×10^6 of L. major promastigotes (strain Hervás) in 50 μL of PBS into the plantar pad of the right back paw. As negative control of the infection, a group of mice inoculated with 50 μL of PBS was used. The sizes of the lesions were measured every 7 days until the animals were sacrificed (week 9) using a Vernier caliper. The thickness of the right back paw (infected) and the left back paw (uninfected) of all the animals was measured at the base of the fifth toe. The progression of the inflammation is represented as the difference in thickness between the infected and the non-infected paws. […]

fibroblast growth factor-1 (FGF-1), sequence (P05230 whole entry, species assumed): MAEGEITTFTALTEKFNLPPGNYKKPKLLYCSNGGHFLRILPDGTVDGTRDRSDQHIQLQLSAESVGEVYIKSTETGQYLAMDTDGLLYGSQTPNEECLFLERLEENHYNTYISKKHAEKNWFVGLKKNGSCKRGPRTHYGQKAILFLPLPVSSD

For the compound `CC(=O)Oc1ccc(OC(C)=O)c(S(=O)(=O)O)c1` [2,5-diacetoxybenzenesulfonic acid], the “state of the compound when bound to FGF-1 (co-crystal electron density)” value (shortened to “state of the compound when bound”) in test [1] is “conserves the acetoxyl groups in positions 2 and 5 when it binds to the protein”.

Regarding `CC(=O)Oc1ccc(O)cc1S(=O)(=O)O` [2-acetoxy-5-hydroxybenzenesulfonic acid], in test [1], the “state of the compound when bound” value is “conserves the acetoxyl group in position 2 when it binds to the protein”.

For `CC(=O)Oc1ccc(O)c(S(=O)(=O)O)c1` [5-acetoxy-2-hydroxybenzenesulfonic acid], in test [1], the “state of the compound when bound” value is reported as “conserves the acetoxyl group in position 5 when it binds to the protein”.

Consider `CC(=O)Oc1ccc(O)c(S(=O)(=O)[O-])c1.[K+]` [5A-2HBS, potassium 5-acetoxy-2-hydroxybenzene sulfonate], for which, in test [2], the “inhibition of FGF-1 induced mitogenesis” value is “Inhibition of FGF-1 induced mitogenesis”. Further, the “rat glioma cell proliferation” value in the test on rat C6 glioma cells was “inhibition of rat glioma cell proliferation”.

On to `CC(=O)Oc1ccc(OC(C)=O)c(S(=O)(=O)[O-])c1.[K+]` [DABS, potassium 2,5-diacetoxybenzene sulfonate], for which the “disease clinical score (0 to 6 scale)” value in test [3] (100 mg/kg/day i.p.) and in test [3] (125 mg/kg/day orally) was “reduced” throughout. Moreover, the “loss of body weight produced by DSS” value in test [3] (DABS 100 mg/kg/day i.p. or 125 mg/kg/day p.o., two 7-day DSS cycles, vs vehicle) is listed as “reduced; also recorded: significant effect on the body weight”. Moreover, in test [3] (DABS i.p. or p.o. vs Solu-Medrol 10 mg/kg/day i.m.), the “efficacy compared with standard treatment Solu-Medrol (body weight and clinical score)” value is reported as “not lower (in some points it is higher)”. In addition, the “methacholine induced bronchoconstriction (Penh)” value in the test with OVA-sensitized mice (100 mg/kg/day i.p. from day 2) and in the test on OVA-sensitized mice (100 mg/kg/day i.p. from day 8) was “completely prevented” each time. In the test on OVA-sensitized mice (100 mg/kg/day i.p., right lung BAL, vs vehicle), the “presence of cells in bronchoalveolar lavage (BAL)” value is recorded as “significantly reduced”. For the same compound, the “increase of the Penh after exposure to methacholine vs saline” value in the test with OVA-sensitized mice (mouse, in vivo) is recorded as “do not show a significant increase of the Penh”. Moreover, the “reduction of BAL cells compared with Combivent” value with OVA-sensitized mice (mouse, in vivo) is given as “even more than the treatment with Combivent”. In addition, the “size of the lesion (paw thickness difference)” value was “statistically significant reduction in the size of the lesion” in the test on Leishmania major (200 mg/kg daily i.p. from day 0 to week 9, effect from the third week post-infection) and “significantly smaller” in the test with Leishmania major (200 mg/kg/day i.p. from the third week after inoculation, effect from the eighth week). Moreover, in test [2], the “inhibition of FGF-1 induced mitogenesis” value is reported as “Inhibition of FGF-1 induced mitogenesis”.

On to `C[C@H]1C[C@@H]2[C@H]([C@@H](O)C[C@@]3(C)[C@H]2CC[C@]3(O)C(=O)COC(=O)CCC(=O)O)[C@@]2(C)C=CC(=O)C=C12` [Solu-Medrol, reference compound], for which the “effect on body weight” value in test [3] (Solu-Medrol 10 mg/kg/day i.m., two 7-day DSS cycles, vs vehicle) was “significant effect on the body weight”.

Regarding “calcium 2-acetoxy-5-hydroxybenzenesulfonate [2A-5HBS]”, the “inhibition of FGF-1 induced mitogenesis” value in test [2] is “Inhibition of FGF-1 induced mitogenesis”.
